Results from patent publication US20200308220A1, “AROMATIC-CATIONIC PEPTIDES CONJUGATED TO AN[…] THEIR USE IN TREATING COMPLEX REGIONAL PAIN SYNDROME” (priority 2015, published 2020).
Where a SMILES comes first, the peptide text is derived from it.

Assays:
[1] = target: T1, δ receptors (Rattus norvegicus, UniProt P33533); experiment: Receptor binding, displacement of [3H]DSLET from rat brain membrane binding sites
T1 construct: from tissue; host or cells: rat brain membranes
Protocol: (§1) Peptide conjugates of Table 5 were tested in functional assays based on inhibition of electrically evoked contractions of the guinea pig ileum (GPI) and the mouse vas deferens (MVD). The GPI assay is representative for μ opioid receptor (MOR) interactions, whereas in the MVD assay opioid effects are primarily mediated by the δ opioid receptor (DOR). The assays were carried out as described in DiMaio et al., J. Med. Chem. (1982) 25, 1432-1438. Binding affinities for μ and δ receptors were determined by displacing, respectively, [^3H]DAMGO and [^3H]DSLET from rat brain membrane binding sites (see Schiller et al., Biochem. Biophys. Res. Commun. (1978) 85, 1332-1338).

[2] = target: T2, μ receptors (Rattus norvegicus, UniProt P33535); experiment: Receptor binding, displacement of [3H]DAMGO from rat brain membrane binding sites
T2 construct: from tissue; host or cells: rat brain membranes
T2 sequence (P33535 whole entry): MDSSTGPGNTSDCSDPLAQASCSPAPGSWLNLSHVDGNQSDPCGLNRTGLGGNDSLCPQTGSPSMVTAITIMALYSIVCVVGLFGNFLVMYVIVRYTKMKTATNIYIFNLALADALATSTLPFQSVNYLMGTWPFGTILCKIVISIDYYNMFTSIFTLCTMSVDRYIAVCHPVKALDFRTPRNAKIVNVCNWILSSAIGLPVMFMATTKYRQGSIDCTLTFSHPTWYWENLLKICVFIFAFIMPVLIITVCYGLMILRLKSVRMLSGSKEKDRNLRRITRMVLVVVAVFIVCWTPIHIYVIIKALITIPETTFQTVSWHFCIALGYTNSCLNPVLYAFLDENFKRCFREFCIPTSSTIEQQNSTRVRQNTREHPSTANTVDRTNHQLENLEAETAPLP
Protocol: as §1

[3] = target: T3, δ opioid receptor (DOR) (Mus musculus, UniProt P32300); experiment: Inhibition of electrically evoked contractions of the mouse vas deferens (MVD); format: cell-based
T3 construct: the guinea pig ileum (GPI) and the mouse vas deferens (MVD); from tissue; host or cells: mouse vas deferens
T3 sequence (P32300 whole entry): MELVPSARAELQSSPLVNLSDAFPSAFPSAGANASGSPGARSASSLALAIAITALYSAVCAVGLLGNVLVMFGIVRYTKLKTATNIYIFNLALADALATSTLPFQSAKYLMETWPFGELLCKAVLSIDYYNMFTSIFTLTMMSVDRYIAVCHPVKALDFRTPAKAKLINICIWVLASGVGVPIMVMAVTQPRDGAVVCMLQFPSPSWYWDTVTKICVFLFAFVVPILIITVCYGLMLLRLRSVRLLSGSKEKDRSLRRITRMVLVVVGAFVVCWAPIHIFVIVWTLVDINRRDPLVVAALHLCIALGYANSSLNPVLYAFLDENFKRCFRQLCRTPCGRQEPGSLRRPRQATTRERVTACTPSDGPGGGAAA
Protocol: as §1

[4] = tested on: CPIP rats; experiment: Chronic post-ischemia pain (CPIP) rat model of CRPS-I, reversal of mechanical allodynia
Protocol: H-Dmt-D-Arg-Phe-Lys(NH-TEMPO)-NH2 was tested in a chronic post-ischemia pain (CPIP) rat model (see Coderre et al., Pain (2004) 112, 94-105) of CRPS-I in comparison with [Dmt^1]DALDA and morphine (subcutaneous (s.c.) administration). The analgesic potencies (ED50 values) of the compounds were determined based on their ability to reverse mechanical allodynia in CPIP rats (Table 6).

T1 sequence (P33533 whole entry): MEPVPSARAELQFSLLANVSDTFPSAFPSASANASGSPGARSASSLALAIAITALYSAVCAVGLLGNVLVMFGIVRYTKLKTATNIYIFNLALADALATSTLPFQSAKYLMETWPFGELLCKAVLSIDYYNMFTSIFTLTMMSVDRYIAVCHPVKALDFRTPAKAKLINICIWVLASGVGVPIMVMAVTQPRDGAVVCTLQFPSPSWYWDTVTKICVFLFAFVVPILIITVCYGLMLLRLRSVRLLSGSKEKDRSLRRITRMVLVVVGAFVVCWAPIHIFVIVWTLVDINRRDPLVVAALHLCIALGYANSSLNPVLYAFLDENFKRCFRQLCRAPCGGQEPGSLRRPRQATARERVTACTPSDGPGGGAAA

Structure (SMILES)	Ki [1] [nM]	Ki [2] [nM]	IC50 [3] [nM]	ED50 ± SEM (analgesic potency) ([4]; reversal of mechanical allodynia in CPIP rats, s.c. administration) [mg/kg]	crossing the blood-brain barrier ([4]; inferred from centrally mediated analgesic effect after s.c. dosing)	ED50 ([4]; Rattus norvegicus, sc, read-out: ED50 ± SEM (analgesic potency)) [mg/kg]	Potency Ratio ([4]; relative to morphine (=1), CPIP rats, s.c.)
Cc1cc(O)cc(C)c1C[C@H](N)C(=O)N[C@H](CCCNC(=N)N)C(=O)N[C@@H](Cc1ccccc1)C(=O)N[C@@H](CCCCNC(=O)[C@@]1(C)CCc2c(C)c(O)c(C)c(C)c2O1)C(N)=O [H-Dmt-D-Arg-Phe-Lys(Tro[R])-NH2]	3.64	0.273	0.847				
Cc1cc(O)cc(C)c1C[C@H](N)C(=O)N[C@H](CCCNC(=N)N)C(=O)N[C@@H](Cc1ccccc1)C(=O)N[C@@H](CCCCN)C(N)=O [H-Dmt-D-Arg-Phe-Lys-NH2]				0.103 ± 0.046			
Cc1cc(O)cc(C)c1C[C@H](N)C(=O)N[C@H](CCCNC(=N)N)C(=O)N[C@@H](Cc1ccccc1)C(=O)NC(CCCCNC1CC(C)(C)N([O])C(C)(C)C1)C(N)=O (stereo partly drawn) [H-Dmt-D-Arg-Phe-Lys(NH-TEMPO)-NH2]	30.4	0.263	1.15		capable of crossing the blood-brain barrier		
Cc1cc(O)cc(C)c1C[C@H](N)C(=O)N[C@H](CCCNC(=N)N)C(=O)N[C@@H](Cc1ccccc1)C(=O)N[C@@H](CCCCN)C(=O)NCCC(=O)NC1CC(C)(C)N([O])C(C)(C)C1 [H-Dmt-D-Arg-Phe-Lys-NH—(CH2)2—CO—NH-TEMPO] (HELM PEPTIDE1{[Cc1cc(O)cc(C)c1C[C@H](N)C(=O)[*:2]].[dR].F.K.[bAla].[CC1(C)CC(N[*:1])CC(C)(C)N1[O]]}$$$$V2.0)	2.15	4.56	262				
CN1CC[C@]23c4c5ccc(O)c4O[C@H]2[C@@H](O)C=C[C@H]3[C@H]1C5 [morphine]						1.55 ± 0.664	1
Cc1cc(O)cc(C)c1C[C@H](N)C(=O)N[C@H](CCCNC(=N)N)C(=O)N[C@@H](Cc1ccccc1)C(=O)N[C@@H](CCCCNC(=O)[C@]1(C)CCc2c(C)c(O)c(C)c(C)c2O1)C(N)=O [H-Dmt-D-Arg-Phe-Lys(Tro[S])-NH2, H-Dmt-D-Arg-Phe-Lys(Tro[S])—NH2]	3.48	0.252	3.76				
